Assay results from patent US11612583B2, “Disease modifying methods for treating neurodegenerative diseases using nootropic agents” (priority 2018, dated 2023).

What was measured:
Assay type in all cases: cell-based, mouse
[1] = system: primary cortical neurons treated with rotenone; assay: Extracellular acidification rates (ECARs), proxy for glycolysis, in rotenone-treated primary cortical neurons; settings: after rotenone 65 nM 24 hours, 6.5 μM-8.5 μM, FIG. 3
Experimental: Rotenone (1.26 mM stock, Sigma, Cat #R8875) was freshly prepared in water prior to each use. Stocks of rotenone were maintained in the dark at −20° C. for up to 6 months. […]
The extracellular acidification rates (ECARs), a proxy for glycolysis, were also assessed by using an XF24^e Extracellular Flux Analyzer in primary neurons.

[2] = system: primary cortical neurons treated with rotenone; assay: Image-based analysis of mitochondrial content in dendrites (MAP2B/TOM20 immunostaining); settings: after rotenone 65 nM; Forskolin/NKH477 6.5 μM-8.5 μM or 250 μM dbt-cAMP; FIG. 4
Excerpt: The rotenone-treated neurons were also studied by image-based analyses of mitochondrial content in dendrites from primary cortical neurons immunostained for dendrites (MAP2B) and for mitochondria (TOM20).

[3] = system: primary cortical neurons treated with rotenone; assay: Oxygen consumption rates (XF24e Extracellular Flux Analyzer) in rotenone-treated primary cortical neurons; settings: after rotenone 65 nM 24 hours, 24 hrs
Experimental: Rotenone (1.26 mM stock, Sigma, Cat #R8875) was freshly prepared in water prior to each use. Stocks of rotenone were maintained in the dark at −20° C. for up to 6 months. Rotenone was used at 65 μM for neuroblastoma cells and at 65 nM for primary cortical neurons for 4-6 hours to induce oxidative and autophagic stress.
Forskolin (Coleus forskohlii, >98% HPLC, Sigma Aldrich) was prepared in DMSO as 5 mg/ml stocks (stable for up to 6 months if kept in the dark and stored in −20° C. until ready to use). On the day of the experiment, the forskolin aliquot was thawed and cells were treated once with forskolin at a concentration of 1 to up to 10 μM of forskolin in complete media for treating primary cortical neurons or for intraperitoneal administration of PINK1 knockout mice or PINK1 knockout rats.
Rotenone-treated primary neurons were then exposed to 250 μM dibutyryl cyclic AMP (dbt-cAMP) or with the parental or water-soluble form (NKH477) of Forskolin (6.5 μM-8.5 μM, 24 hrs). The basal oxygen consumption rates (OCRs), a proxy for mitochondrial function, were analyzed by using an XF24^e Extracellular Flux Analyzer (Agilent Technologies). The maximal oxygen consumption rates (OCRs), a proxy for maximal buffering capacity of mitochondrial function, were also analyzed by using an XF24^e Extracellular Flux Analyzer in primary cortical neurons treated with 1 μM FCCP, an ionophore that acts as a mitochondrial uncoupler.

[4] = system: primary cortical neurons treated with rotenone; assay: Dendrite length analysis (MAP2B immunostaining); settings: after rotenone 65 nM; Forskolin/NKH477 6.5 μM-8.5 μM or 250 μM dbt-cAMP; FIG. 5
primary cortical neurons = assay: Rotenone toxicity in primary cortical neurons; settings: 24 hours

Structure (SMILES) | glycolysis (baseline ECARs) [1] | mitochondrial content in dendrites (% of dendrites occupied by mitochondria) [2] | spare respiratory capacity (Maximal OCRs-Baseline OCRs) ([3]; 6.5 μM-8.5 μM, 1 μM FCCP, FIG. 2) | baseline mitochondrial respiration (basal OCRs) ([3]; Forskolin or NKH477 6.5 μM-8.5 μM, FIG. 1) | dendrite arbors (total dendrite length per neuron) [4] | LD50 concentration (primary cortical neurons) [nM]
C=C[C@@]1(C)CC(=O)[C@]2(O)[C@@]3(C)[C@@H](O)CCC(C)(C)[C@@H]3[C@H](OC(=O)CCN(C)C)[C@H](OC(C)=O)[C@@]2(C)O1.Cl [NKH477] | completely restored normal glycolytic function | completely blocked | completely restored | partially or completely restored | completely blocked | –
CCCC(=O)Nc1ncnc2c1ncn2[C@@H]1O[C@@H]2COP(=O)(O)O[C@H]2[C@H]1OC(=O)CCC [dbt-cAMP, dibutyryl cyclic AMP] | – | reversed the loss of mitochondria within dendrites | – | – | reversed the loss of dendrites | –
C=C(C)[C@H]1Cc2c(ccc3c2O[C@@H]2COc4cc(OC)c(OC)cc4[C@@H]2C3=O)O1 [rotenone, Rotenone] | – | – | – | – | – | 65
